In PMC9908614 (Frontiers in Microbiology, 2023):

Experiments:
EphH (Rv3338) [1] = target: T1, EphH (Rv3338) (Mycobacterium tuberculosis, UniProt O53388); format: biochemical
EphH (Rv3338) [2] = target: T1, EphH (Rv3338); assay: biochemical; details: read-out: rEphH
[3] = target: T2, sEH (human recombinant sEH) (Homo sapiens, UniProt P34913); assay: fluorescence hydrolysis assay, Michaelis-Menten (Km); format: biochemical; details: cited from earlier work
T2 construct: gene EPHX2
T2 sequence (P34913 1-555): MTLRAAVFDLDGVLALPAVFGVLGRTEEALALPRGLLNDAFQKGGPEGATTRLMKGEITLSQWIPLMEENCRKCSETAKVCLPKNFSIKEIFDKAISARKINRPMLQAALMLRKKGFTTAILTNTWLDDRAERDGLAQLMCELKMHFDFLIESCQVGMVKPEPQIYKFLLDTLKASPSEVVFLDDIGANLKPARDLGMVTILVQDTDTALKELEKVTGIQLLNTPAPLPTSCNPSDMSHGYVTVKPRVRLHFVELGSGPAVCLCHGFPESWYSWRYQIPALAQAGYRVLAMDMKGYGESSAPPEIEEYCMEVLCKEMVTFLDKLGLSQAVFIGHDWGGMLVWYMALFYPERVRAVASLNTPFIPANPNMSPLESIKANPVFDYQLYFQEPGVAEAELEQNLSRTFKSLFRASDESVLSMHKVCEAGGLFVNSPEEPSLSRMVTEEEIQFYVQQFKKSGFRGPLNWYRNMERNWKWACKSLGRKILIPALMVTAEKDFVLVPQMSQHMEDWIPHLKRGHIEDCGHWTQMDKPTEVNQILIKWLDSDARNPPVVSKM

[4] = test system: COc1ccc2cc(C(C#N)OC(=O)CC3OC3c3ccccc3)ccc2c1; assay: purified protein

T1 sequence (O53388 whole entry): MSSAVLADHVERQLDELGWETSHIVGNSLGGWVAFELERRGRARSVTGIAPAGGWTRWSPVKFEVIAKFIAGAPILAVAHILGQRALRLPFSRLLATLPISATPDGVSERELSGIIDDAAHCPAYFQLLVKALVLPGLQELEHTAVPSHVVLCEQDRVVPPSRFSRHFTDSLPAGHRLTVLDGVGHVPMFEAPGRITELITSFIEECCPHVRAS

In the case of `c1ccc(C2CO2)cc1` (racemic) [styrene oxide], the “colorimetric Red assay (NaIO4/adrenaline) with purified rEphH” value (EphH (Rv3338) [1]) is reported as “EphH activity was also determined with another EH substrate, styrene oxide”.
Compound `O=C(O)CCCCCCCCCCCNC(=O)NC12CC3CC(CC(C3)C1)C2` [AUDA, 12-(3-adamantane-1-yl-ureido)-dodecanoic acid] has an IC50 (EphH (Rv3338) [2]) of 9.4 ± 0.5 nM.
For `COc1ccc2cc(C(C#N)OC(=O)CC3OC3c3ccccc3)ccc2c1` (stereo not drawn) [PHOME, (3-phenyl-oxiranyl)-acetic acid cyano-(6-methoxynaphthalen-2-yl)-methyl ester], the Km [3] is given as 26.2 µM.
“EphH (Rv3338) (Mycobacterium tuberculosis H37Rv)” showed a Km [4] of 21.03 µM, a Vmax [4] of 1.027 µmol/min and a kcat/Km [4] of 870000 M⁻¹ s⁻¹.
